How the values were obtained:
S. aureus (ATCC 29213) = test: Zone of inhibition screen, 96 well agar array format; assay type: cell-based; parameters: scale not given here
Method in brief: (§1)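 Panel screening of every compound against several bacterial strains, among them E. faecium ATCC 49624, was done in a 96-well agar array.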

E. faecalis (CL 4877) = test: as above; assay type: cell-based; parameters: scale not given here
Method in brief: as §1

[1] = zone of inhibition relative to 1 mg/ml p-chlorobiphenylvancomycin
[2] = zone of inhibition relative to 1 mg/ml stock solution of p-chlorobiphenylvancomycin

Row | Structure (SMILES) | zone score, S. aureus ATCC 29213 (S. aureus (ATCC 29213); [1]) | zone score, E. faecalis CL 4877 (E. faecalis (CL 4877); [1]) | zone score, S. aureus ATCC 29213 (S. aureus (ATCC 29213); [2]) | zone score, E. faecalis CL 4877 (E. faecalis (CL 4877); [2])
1 | CC(=O)CCCCC(=O)NC1C(=O)NC(CC(N)=O)C(=O)NC2C(=O)NC3C(=O)NC(C(=O)NC(C(=O)O)c4cc(O)cc(O)c4-c4cc3ccc4O)C(O)c3ccc(c(Cl)c3)Oc3cc2cc(c3OC2OC(CO)C(O)C(O)C2OC2CC(C)(NCc3ccc(-c4ccc(Cl)cc4)cc3)C(O)C(C)O2)Oc2ccc(cc2Cl)C1O (stereo not shown) [Compound 278] | 2 | 2 | – | –
2 | CC1OC(OC2C(Oc3c4cc5cc3Oc3ccc(cc3Cl)C(O)C(NC(=O)C3(C(N)=O)CC3)C(=O)NC(CC(N)=O)C(=O)NC5C(=O)NC3C(=O)NC(C(=O)NC(C(=O)O)c5cc(O)cc(O)c5-c5cc3ccc5O)C(O)c3ccc(c(Cl)c3)O4)OC(CO)C(O)C2O)CC(C)(NCc2ccc(-c3ccc(Cl)cc3)cc2)C1O (stereo not shown) [Compound 98] | – | – | 2 | 2
3 | CC1OC(OC2C(Oc3c4cc5cc3Oc3ccc(cc3Cl)C(O)C3NC(=O)C(NC(=O)C5NC(=O)C(CC(N)=O)NC(=O)C(NC(=O)COc5cc(Cl)c(Cl)cc5Cl)C(O)c5ccc(c(Cl)c5)O4)c4ccc(O)c(c4)-c4c(O)cc(O)cc4C(C(=O)O)NC3=O)OC(CO)C(O)C2O)CC(C)(NCc2ccc(-c3ccc(Cl)cc3)cc2)C1O (stereo not shown) [Compound 233] | 2 | 2 | – | –
4 | CC1OC(OC2C(Oc3c4cc5cc3Oc3ccc(cc3Cl)C(O)C3NC(=O)C(NC(=O)C5NC(=O)C(CC(N)=O)NC(=O)C(NC(=O)CCC(NC(=O)OC(C)(C)C)C(N)=O)C(O)c5ccc(c(Cl)c5)O4)c4ccc(O)c(c4)-c4c(O)cc(O)cc4C(C(=O)O)NC3=O)OC(CO)C(O)C2O)CC(C)(NCc2ccc(-c3ccc(Cl)cc3)cc2)C1O (stereo not shown) [Compound 137] | – | – | 2 | 2
5 | CC1OC(OC2C(Oc3c4cc5cc3Oc3ccc(cc3Cl)C(O)C3NC(=O)C(NC(=O)C5NC(=O)C(CC(N)=O)NC(=O)C(NC(=O)c5ccc(=O)oc5)C(O)c5ccc(c(Cl)c5)O4)c4ccc(O)c(c4)-c4c(O)cc(O)cc4C(C(=O)O)NC3=O)OC(CO)C(O)C2O)CC(C)(NCc2ccc(-c3ccc(Cl)cc3)cc2)C1O (stereo not shown) [Compound 282] | 2 | 2 | – | –
6 | CC1OC(OC2C(Oc3c4cc5cc3Oc3ccc(cc3Cl)C(O)C3NC(=O)C(NC(=O)C5NC(=O)C(CC(N)=O)NC(=O)C(NC(=O)CNC(=O)CNC(=O)OC(C)(C)C)C(O)c5ccc(c(Cl)c5)O4)c4ccc(O)c(c4)-c4c(O)cc(O)cc4C(C(=O)O)NC3=O)OC(CO)C(O)C2O)CC(C)(NCc2ccc(-c3ccc(Cl)cc3)cc2)C1O (stereo not shown) [Compound 223] | 2 | 2 | – | –
7 | CC(NC(=O)OC(C)(C)C)C(=O)NCC(=O)N(C)CC(=O)NC1C(=O)NC(CC(N)=O)C(=O)NC2C(=O)NC3C(=O)NC(C(=O)NC(C(=O)O)c4cc(O)cc(O)c4-c4cc3ccc4O)C(O)c3ccc(c(Cl)c3)Oc3cc2cc(c3OC2OC(CO)C(O)C(O)C2OC2CC(C)(NCc3ccc(-c4ccc(Cl)cc4)cc3)C(O)C(C)O2)Oc2ccc(cc2Cl)C1O (stereo not shown) [Compound 132] | – | – | 2 | 2
8 | CC1OC(OC2C(Oc3c4cc5cc3Oc3ccc(cc3Cl)C(O)C3NC(=O)C(NC(=O)C5NC(=O)C(CC(N)=O)NC(=O)C(NC(=O)c5cc(O)cc(O)c5)C(O)c5ccc(c(Cl)c5)O4)c4ccc(O)c(c4)-c4c(O)cc(O)cc4C(C(=O)O)NC3=O)OC(CO)C(O)C2O)CC(C)(NCc2ccc(-c3ccc(Cl)cc3)cc2)C1O (stereo not shown) [Compound 255] | 2 | 2 | – | –
9 | CC1OC(OC2C(Oc3c4cc5cc3Oc3ccc(cc3Cl)C(O)C(NC(=O)C(C)(CO)CO)C(=O)NC(CC(N)=O)C(=O)NC5C(=O)NC3C(=O)NC(C(=O)NC(C(=O)O)c5cc(O)cc(O)c5-c5cc3ccc5O)C(O)c3ccc(c(Cl)c3)O4)OC(CO)C(O)C2O)CC(C)(NCc2ccc(-c3ccc(Cl)cc3)cc2)C1O (stereo not shown) [Compound 232] | 2 | 2 | – | –
10 | COc1ccc(C(=O)NC2C(=O)NC(CC(N)=O)C(=O)NC3C(=O)NC4C(=O)NC(C(=O)NC(C(=O)O)c5cc(O)cc(O)c5-c5cc4ccc5O)C(O)c4ccc(c(Cl)c4)Oc4cc3cc(c4OC3OC(CO)C(O)C(O)C3OC3CC(C)(NCc4ccc(-c5ccc(Cl)cc5)cc4)C(O)C(C)O3)Oc3ccc(cc3Cl)C2O)c(OC)c1 (stereo not shown) [Compound 236] | 2 | 2 | – | –
11 | C[C@H]1O[C@H](O[C@H]2[C@H](Oc3c4cc5cc3Oc3ccc(cc3Cl)[C@@H](O)[C@@H](NC(=O)c3nc(N)n[nH]3)C(=O)N[C@@H](CC(N)=O)C(=O)N[C@H]5C(=O)N[C@H]3C(=O)N[C@H](C(=O)N[C@@H](C(=O)O)c5cc(O)cc(O)c5-c5cc3ccc5O)[C@H](O)c3ccc(c(Cl)c3)O4)O[C@H](CO)[C@@H](O)[C@@H]2O)C[C@@](C)(NCc2ccc(-c3ccc(Cl)cc3)cc2)[C@H]1O [Compound 256] | 2 | 2 | – | –

Source: patent US6518243B1, “Desleucyl glycopeptide antibiotics and methods of making same” (Trustees of Princeton University, priority 1999, dated 2003)
